This note sets out measurements from patent EP0920441B1, “7ALPHA-(EPSILON-AMINOALKYL)-ESTRATRIENES, PROCESS FOR PREPARING THE SAME, PHARMACEUTICAL PREPARATIONS CONTAINING SAID 7ALPHA-(EPSILON-AMINOALKYL)-ESTRATRIENES AND THEIR USE FOR PREPARING MEDICAMENT” (SCHERING AKTIENGESELLSCHAFT, priority 1996, dated 1998).

The test system of test [1] is Uterus. The test is described as follows: Uterus growth test in the infantile rat, p.o. (antiestrogenic / antiuterotrophic activity). The following applies: 0,1 mg/kg p.o. once daily for 3 days with 0,5 µg Estradiolbenzoat s.c., inhibition of uterus weight versus EB control. The test is classed as in vivo, Ratte. From the text: 1. Uteruswachstumstest bei der infantilen Ratte (antiestrogene Wirkung)
Bei Nagern reagiert der Uterus auf die Applikation von estrogenen mit einer Gewichtszunahme (sowohl Proliferation als auch Wassereinlagerung). Dieses Wachstum ist durch gleichzeitige Gäbe antiestrogen-wirkender Verbindungen dosisabhängig zu hemmen. * = Dimethylbenzanthrazen
Infantile weibliche Ratten im Gewicht von 35-45 g bei Versuchsbeginn, pro Dosis 5-6 Tiere.
Für die p.o. Applikation werden die Substanzen in 1 Teil Ethanol (E) gelöst und mit 9 Teilen Erdnußöl (EÖ) aufgefüllt.
Die gerade von den Müttern abgesetzten jungen Ratten werden zur Eingewöhnung einen Tag vor Behandlungsbeginn geliefert und sofort mit Futter - auch in dem Tierkäfig - versorgt. Die Behandlung erfolgt dann täglich einmal über 3 Tage in Kombination mit 0,5 µg Estradiolbenzoat (EB). EB wird immer subcutan (s.c.) appliziert, während die Testsubstanz p.o. (peroral) verabreicht wird. 24 Stunden nach der letzten Applikation werden die Tiere gewogen, getötet und die Uteri entnommen. Von den präparierten Uteri werden die Feuchtgewichte (ohne Inhalt) ermittelt.
• negative Kontrolle: Vehikel (E/EÖ), 0,2 ml/Tier/Tag • positive Kontrolle: 0,5 µg EB/0,1 ml/Tier/Tag
Von den relativen Organgewichten (mg/100 g Körpergewicht) werden für jede Gruppe die Mittelwerte mit Standardabweichung (X+SD), sowie die Signifikanz der Unterschiede zur Kontrollgruppe (EB) im Dunnett-Test (p<0.05) ermittelt. Die Berechnung der Hemmung (in %) gegenüber der EB-Kontrolle erfolgt mit einem Programm. Die relativen Wirksamkeiten der Prüfsubstanzen werden durch eine Kovarianz- und Regressionsanalyse ermittelt.

In test [2] the target is T1, humanem Estrogenrezeptor (Homo sapiens, UniProt P03372).
T1 construct: expressed in transfected cells; host or cells: HeLa cells, transiently transfected with HEGO
T1 sequence (P03372 1-595): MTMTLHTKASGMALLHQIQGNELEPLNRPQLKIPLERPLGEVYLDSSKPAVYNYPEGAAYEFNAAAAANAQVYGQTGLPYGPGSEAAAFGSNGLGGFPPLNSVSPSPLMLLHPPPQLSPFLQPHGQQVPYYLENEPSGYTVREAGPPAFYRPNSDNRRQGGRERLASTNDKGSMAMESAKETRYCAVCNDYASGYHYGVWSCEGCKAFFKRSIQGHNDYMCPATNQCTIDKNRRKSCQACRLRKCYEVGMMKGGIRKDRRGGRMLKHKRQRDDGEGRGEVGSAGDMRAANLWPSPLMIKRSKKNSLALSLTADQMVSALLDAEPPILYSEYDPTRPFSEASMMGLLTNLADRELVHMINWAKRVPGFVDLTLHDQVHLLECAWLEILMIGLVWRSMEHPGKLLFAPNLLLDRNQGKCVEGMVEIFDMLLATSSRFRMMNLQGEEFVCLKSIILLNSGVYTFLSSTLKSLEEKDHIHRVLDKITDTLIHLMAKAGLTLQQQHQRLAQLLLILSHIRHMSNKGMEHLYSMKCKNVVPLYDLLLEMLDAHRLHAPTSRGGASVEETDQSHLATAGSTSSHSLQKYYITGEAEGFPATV
The test is described as follows: Transactivation assay for antiestrogenic activity in HeLa cells (HEGO + Vit-TK-CAT reporter). It is filed as cell-based. The following applies: Hela cells transiently transfected with HEGO and Vit-TK-CAT; in presence of 0,1 nM Estradiol; read-out: IC50 [nM] Hela-Zellen. The text has this:
Die antiestrogene Wirkung der erfindungsgemäßen Verbindungen wurde in Transaktivierungsassays bestimmt [Demirpence E., Duchesne M.-J., Badia E., Gagne D. und Pons M.: MVLN Cells: A Bioluminescent MCF-7-Derived Cell Line to study the Modulation of Estrogenic Activity; J. Steroid. Molec.
Die Hela-Zellen sind transient mit humanem Estrogenrezeptor-Expressionsvektor (HEGO) und Vit-TK-CAT Reportergen und die MVLN-Zellen stabil mit dem Reportergen Vit-TK-LUC transfiziert. Es wurde die […] Wirkstärke in Gegenwart von 0,1 nM Estradiol bestimmt.

Test [3] has as its system DMBA-induzierten Mammatumors. The test is described as follows: DMBA tumour model in the rat (influence on tumour growth). The test is classed as in vivo, Ratte. The text has this:
Beeinflussung des Tumorwachstums im DMBA*-Modell bei der Ratte (DMBA-Tumormodell)
Das Wachstum des DMBA-induzierten Mammatumors der Ratte ist weitgehend von Estrogenen und Prolaktin abhängig. Wirksame Antiestrogene, Antigestagene und Aromatasehemmer führen zur Hemmung des Tumorwachsturns. Substanzen, die antigonadotrope und androgene Eigenschaften besitzen, entfalten ebenfalls tumorhemmende Wirkung.
45 - 47 Tage alte weibliche Ratten (Sprague-Dawley, Züchter ZIH oder Möllegard), pro Gruppe 8 - 10 Tiere. *9,10-Dimethyl-1,2-benzanthracen
Die Tiere erhalten einmalig 10 mg DMBA oral. Anschließend werden die Tiere einmal wöchentlich palpatorisch auf Tumorentwicklung untersucht. 6 bis 10 Wochen nach der DMBA-Behandlung entwickeln sich etwa 1 bis 10 Tumoren pro Tier. Die Tumorgröße wird einmal wöchentlich mit Hilfe einer Schiebelehre bestimmt. Hat mindestens ein Tumor eine definierte Größe (150 mm^2 Tumorfläche) erreicht, erfolgt die Ovariektomie der Tiere bzw. beginnt die Behandlung der Tiere mit der Testsubstanz. Die Behandlung erfolgt zumeist täglich über ca. 28 Tage (Details Abwicklung siehe Versuchsplan). Die Tumorgröße wird weiterhin 1 x /Woche ermittelt.
Die Gesamttumorgröße pro Tier wird vor Beginn der Behandlung ermittelt (Vorwerte). Für jede Gruppe wird dann der Mittelwert der prozentualen Veränderungen der Tumorgröße, bezogen auf die initialen Werte, errechnet. […]

Test [4] can be described thus: Antiestrogenic activity (test not specified).

The IC50 is the midpoint of a concentration-inhibition curve.

With `CN(CCCCC[C@@H]1Cc2cc(O)ccc2[C@@H]2[C@@H]1[C@@H]1CC[C@H](O)[C@@]1(C)C[C@@H]2F)CCCSCCCC(F)(F)C(F)(F)F` [Beispiel 12, 11β-Fluor-7α-{5-(N-methyl-N-3-(4,4,5,5,5-pentafluorpentylthio)-propytamino]-pentyl}-estra-1,3,5(10)-trien-3,17β-diol], in test [1], the “0,1 mg/kg p.o. % Hemmung” value is 91%. Besides, the IC50 in test [2] stood at 0.06 nM.

In the case of `CN(CCCCC[C@@H]1Cc2cc(O)ccc2[C@H]2CC[C@@]3(C)[C@@H](C[C@@H](F)[C@]3(C)O)[C@H]12)CCCSCCCC(F)(F)C(F)(F)F` [Beispiel 15, 16α-Fluor-17α-methyl-7α-{5-[N-methyl-N-3-(4,4,5,5,5-pentafluorpentylthio)-propylamino]-pentyl}-estra-1,3,5(10)-trien-3,17β-diol], in test [1], the “0,1 mg/kg p.o. % Hemmung” value was found to be 33%. Besides, the IC50 in test [2] is 0.06 nM. In the same order, the values of `CN(CCCCC[C@@H]1Cc2cc(O)ccc2[C@H]2CC[C@@]3(C)[C@@H](C[C@@H](F)[C@]3(C)O)[C@H]12)CCCS(=O)(=O)CCCC(F)(F)C(F)(F)F` [Beispiel 18, 16α-Fluor-17α-methyl-7α-{5-[N-methyl-N-3-(4,4,5,5,5-pentafluorpentansulfonyl)-propylamino]-pentyl}-estra-1,3,5(10)-trien-3,17β-diol] are 16% and 0.05 nM.

In the case of `CN(CCCCC[C@@H]1Cc2cc(O)ccc2[C@H]2CC[C@@]3(C)C(=CC[C@@H]3O)[C@H]12)CCCS(=O)(=O)CCCC(F)(F)C(F)(F)F` [Beispiel 25, 7α-{5-[N-Methyl-N-3-(4,4,5,5,5-pentafluorpentansulfonyl)-propylamino]-pentyl}-estra-1,3,5(10),14-tetraen-3,17β-diol], the IC50 in test [2] was 0.06 nM.

For `C[C@]12C[C@H](F)[C@@H]3c4ccc(O)cc4C[C@@H](CCCCCN4CCC[C@H]4CSCCCC(F)(F)C(F)(F)F)[C@H]3[C@@H]1CC[C@@H]2O` [Beispiel 29, 11β-Fluor-7α-{5-[2-(4,4,5,5,5-pentafluorpentylthiomethyl)-pyrrolidin-1-yl]-pentyl}-estra-1,3,5(10)-trien-3,17β-diol], the “0,1 mg/kg p.o. % Hemmung” value in test [1] is recorded as 80%. In test [3] (oral dose 3 mg/kg/Tag (Figur 1)), the “Hemmung des Tumorwachstums” value is “stärker als eine orale Dosis von 10 mg/kg/Tag 7α-[9-(4,4,5,5,5-Pentafluorpentansulfinyl)-nonyl]-estra-1,3,5(10)-trien-3,17β-diol”. The IC50 in test [2] was 0.13 nM. On to `C[C@]1(O)CC[C@H]2[C@@H]3[C@H](CCCCCN4CCC[C@H]4CSCCCC(F)(F)C(F)(F)F)Cc4cc(O)ccc4[C@H]3[C@@H](F)C[C@@]21C` [Beispiel 31, 11β-Fluor-17α-methyl-7α-{5-[(2S)-2-(4,4,5,5,5-pentafluorpentylthiomethyl)-pyrrolidin-1-yl]-pentyl}-estra-1,3,5(10)-trien-3,17β-diol], for which the “0,1 mg/kg p.o. % Hemmung” value in test [1] stood at 71%. In addition, the IC50 in test [2] amounted to 0.1 nM. In the same order, the values of `CN(CCCCC[C@@H]1Cc2cc(O)ccc2[C@@H]2[C@@H]1[C@@H]1CC[C@](C)(O)[C@@]1(C)C[C@@H]2F)CCCSCCCC(F)(F)C(F)(F)F` [Beispiel 36, 11β-Fluor-17α-methyl-7α-{5-[N-methyl-N-3-(4,4,5,5,5-pentafluorpentylthio)-propylamino]-pentyl}-estra-1,3,5(10)-trien-3,17β-diol] are 62% and 0.05 nM. Turning to `CN(CCCCC[C@@H]1Cc2cc(O)ccc2[C@@H]2[C@@H]1[C@@H]1CCC(=O)[C@@]1(C)C[C@@H]2F)CCCSCCCC(F)(F)C(F)(F)F` [Beispiel 40, 11β-Fluor-7α-{5-[N-methyl-N-3-{4,4,5,5,5-pentafluorpentylthio)-propylamino]-pentyl}-3-hydroxy-estra-1,3,5(10)-trien-17-on], in test [4], the “antiestrogene Wirksamkeit” value is given as “stark antiestrogen wirksam”. For `C[C@]12CC[C@@H]3c4ccc(O)cc4C[C@@H](CCCCCCCCC[S+]([O-])CCCC(F)(F)C(F)(F)F)[C@H]3[C@@H]1CC[C@@H]2O` (stereo partly drawn) [ZM 182 780, 7α-[9-(4,4,5,5,5-Pentafluorpentansulfinyl)-nonyl]-estra-1,3,5(10)-trien-3,17β-diol, reference compound], in test [1], the “0,1 mg/kg p.o. % Hemmung” value came to 8%. Also, the “Hemmung des Tumorwachstums” value in test [3] (oral dose 10 mg/kg/Tag (Figur 1)) was “nur eine geringfügige Wirkung im Vergleich zur intakten Kontrolle”.
